One data set concerns SK-N-BE(2)C cells. Kind of data set: Cell viability (CellTiter-Glo) after 72 h AZD2014, SK-N-BE(2)C. In kind it is cell-based. Conditions: Homo sapiens, read-out: GI50 (concentration that reduced cell viability by 50%). The protocol: (§1) To assess the cellular response to mTORC1/2 inhibition, Kelly and SK-N-BE(2)C cell lines, both of which over-express MYCN protein (Fig. 1b), were incubated with AZD2014 (0 to 1 µM) for 72 h. […] Key substrates of AZD2014- induced mTORC1/2 inhibition were assessed by WB.
(§2) Supplementary Figure 5: NB cell viability after 72 h treatment with AZD2014 (0–1 µM) analysed by Celltiter Glo assay. Data presented as mean ± SEM, n ≥ 3 per group, performed in triplicate. Graph is generated using GraphPad Prism (v 8.4.1), https://www.graphpad.com.
Background: In ATP-based viability assays light output follows the ATP content of the culture.

Data set [1] deals with mTORC1/2. The data set can be described thus: Ex vivo IHC/Western blot of mTOR signalling in treated tumours. Set-up: species or system mice. Conditions: Kelly xenografts 25 mg/kg/day, 3 days. As for the experimental part: (§3) Western blotting (WB) was performed as previously described. Antibodies were obtained from Cell Signalling Technologies (London, UK) unless stated otherwise: GAPDH, beta-actin, p-Akt^S473, Akt, p-4EBP1^T37/46, p-S6^S240/244, S6, N-MYC (Merck Millipore, Watford, UK), NET-1 (mAbTechnologies, Stone Mountain, Georgia), anti-rabbit HRP, anti-mouse HRP. Blots were visualised with SuperSignal West Pico and Femto Chemiluminescent Substrate (Thermo Fisher Scientific, Loughborough, UK) and ChemiDoc XRS + System (BioRad, Watford, UK). Data were processed and band density analysed with ImageJ and Image Lab 6.0 (BioRad, Watford, UK).
Formalin-fixed (10% v/v) paraffin-embedded tumours were sectioned to a thickness of 5 µm. Tumour sections underwent heat-induced epitope retrieval with a citric acid based antigen unmasking solution (H3300, Vector Laboratories, Peterborough, UK). The primary NET-1 antibody (AMT-002, Alomone Labs, Jerusalem, Israel), p-S6^S240/244 and p-4EBP1^T37/46 were added and incubated overnight at 4 °C. Endogenous peroxidases were blocked (2% H2O2 in methanol, 10 min, RT) before incubation with a secondary HRP-conjugated antibody. For chromogen development, slides were processed using a diaminobenzidine (DAB)-peroxidase substrate kit (4 min, Immpact DAB, SK-4105, Vector Laboratories, Peterborough, UK). […]
(Immunoblotting shows a protein as a band on a membrane.)

Data set [2] addresses T1, NET-1 (Homo sapiens, UniProt P23975).
T1 construct: SK-N-SH, SK-N-BE(2)C, Kelly, NBLS human NB cell lines; endogenous in cells; host or cells: SK-N-SH, SK-N-BE(2)C, Kelly, NBLS human neuroblastoma cell lines
The data set can be described thus: Radiotracer cell uptake after AZD2014 pre-treatment, SK-N-BE(2)C cells. In kind it is cell-based. Conditions: for increase of ^18F-mFBG uptake: vs untreated control. As for the experimental part:
(§4) To investigate potential changes in NET-1 function following an AZD2014-induced increase in protein expression, ^18F-mFBG and ^123I-mIBG cell uptake assays were performed in Kelly and SK-N-BE(2)C cells incubated with the drug (0–500 nM) for 24 and 72 h. […] Perhaps due to the already high expression of NET-1, increase in radiotracer uptake was less evident in SK-N-BE(2)C cells (39 ± 9% and 62 ± 5%, respectively). […].
(§5) To test the response of cell uptake using the mTOR1/2 inhibitor AZD2014 (0–500 nM) (vistusertib, Stratech Scientific, Ely, UK), a stock solution of the drug (10 mM) in dimethyl sulfoxide (DMSO, Sigma Aldrich, Gillingham, UK) was initially prepared and then diluted in culture medium to a final DMSO concentration of < 0.1%. Radiotracer uptake was assessed in cells 24 and 72 h after incubation with AZD2014. The uptake was normalised to cell viability as performed using the CellTiter-Glo assay (Promega, Southampton, UK). The data are expressed as the average of n = 3 independent experiments (performed in triplicate) ± SEM.

For data set [3], the system named is NET-1. Kind of data set: Western blot of total NET-1 protein in SK-N-BE(2)C cells after AZD2014. In kind it is cell-based, human. Conditions: seen at 24 h, maintained at 72 h. The protocol:
Given the potential role of Akt in NET-1 protein synthesis and surface expression, we further looked at NET-1 protein levels following AZD2014 treatment. […] In Kelly cells, the WB analysis was not sensitive enough to detect and accurately quantify the inherently low expression of the target protein.
as §3

The test system of another data set is Kelly cells. Kind of data set: Cell viability (CellTiter-Glo) after 72 h AZD2014, Kelly. The note with it: Homo sapiens, read-out: GI50 (concentration that reduced cell viability by 50%). The class given is cell-based. The protocol:
as §1, §2

Data set [4] deals with NET-1. The data set can be described thus: Radiotracer cell uptake after AZD2014 pre-treatment, Kelly cells. The class given is cell-based, human. Conditions: for increase of ^18F-mFBG uptake: vs untreated control. The protocol:
as §4, §5

In data set [5] the test system is NET-1. Kind of data set: Ex vivo Western blot of NET-1 in tumour lysates of treated animals. On the set-up: species or system mice. As for the experimental part: as §3
A further data set has as its system Kelly xenografts. Kind of data set: AZD2014 treatment of Kelly xenograft mice (body weight, tumour growth). The class given is in vivo. The note with it: 25 mg/kg/day. The protocol:
All studies were conducted in compliance with licenses issued under the UK Animals (Scientific Procedures) Act 1986 and approved by the Institute of Cancer Research Animal Welfare and Ethical Review Body (AWERB) according to the United Kingdom National Cancer Research Institute Guidelines for Animal Welfare in Cancer Research (project license PCC916B22, Animals in Science Regulation Unit, Home Office Science, London, UK)[65]. […]; 20–22 g) obtained from an in-house breeding colony were used in the studies. Animals were housed in a temperature-controlled facility with 12 h on–12 h off light cycle and provided water and laboratory rodent food ad libitum. Subcutaneous xenografts were generated by injection of either Kelly (5 × 10^6/0.1 mL PBS/Matrigel 30% v/v; BD Matrigel Matrix, BD Bioscience, San Jose, California, US) or SK-N-BE(2)C (1 × 10^6/0.1 mL PBS/Matrigel) into the lower flank. For the treatment studies, AZD2014 stock solution in DMSO was diluted in PEG400 to a final concentration of 2 mg/mL (10% DMSO maximum). When tumours reached ~ 100 mm^3 (calliper measurements using formula: Volume = (Width(2) × Length)/2), mice were treated daily, for a total of either 1, 3 or 7 days, by oral gavage with AZD2014 (20 or 25 mg/kg/day) or vehicle control. Mice were monitored daily for body weight or other adverse effects.

Data set [6] deals with mTORC1/2. Kind of data set: Western blot of mTORC1/2 substrates in Kelly and SK-N-BE(2)C cells. The class given is cell-based, human. As for the experimental part:
as §3

In data set [7] the target is T1, NET-1. The data set can be described thus: ^18F-mFBG / ^123I-mIBG uptake in NB cell lines with and without desipramine. In kind it is cell-based. The note with it: 1 h at 37 °C, rank among Kelly, SK-N-SH, NBLS. The text has this:
Figure 1 (a) Simplified radiosynthesis scheme of ^18F-mFBG by copper-mediated deborylation. (b) Total NET-1 protein expression in selected NB cell lines determined by Western blot. Full length blots are presented in Supplementary Figure WB1. […] Data are presented as mean ± SEM, n ≥ 2 per group, performed in triplicate. Graphs are generated using GraphPad Prism (v 8.4.1), https://www.graphpad.com.
For each cell line the cell-associated radioactivity was normalised to the number of cells and then each group was presented as a percentage of the signal acquired for SK-N-BE(2)C cells (mean of n = 3 independent experiments performed in triplicate ± SEM).

Data set [8] is described as follows: Biodistribution and PET statements pooled over Kelly and SK-N-BE(2)C xenograft-bearing mice. The class given is in vivo. The note with it: ^123I-mIBG 24 h p.i. As for the experimental part:
When the tumours reached approximately 100–200 mm^3, mice were anaesthetised with an isoflurane/O2 mixture (1.5–2.0% v/v) and intravenously injected with either ^18F-mFBG (~ 7.5 MBq) or ^123I-mIBG (~ 20 MBq). Mice were then imaged using an Albira PET/SPECT/CT scanner (Bruker, Coventry, UK). […] Acquisition, reconstruction and image analysis were performed as described previously. Following the final scan, the mice were sacrificed and the major organs were excised, weighed and their associated radioactivity was measured using a γ-counter. Biodistribution and image quantification were expressed as a percentage of injected dose per gram of tissue (%ID/g), whereby 1 cm^3 on PET acquisitions were assumed to equal 1 g (n ≥ 3 mice ± SD).

A further data set concerns NB tumours. On the set-up: method as in PMID 15490487, PMID 3181182, PMID 22700000. The note with it: NB patients; cited from earlier work.
[9] abbreviates: Kelly and SK-N-BE(2)C, Western blot.

T1 sequence (P23975 whole entry): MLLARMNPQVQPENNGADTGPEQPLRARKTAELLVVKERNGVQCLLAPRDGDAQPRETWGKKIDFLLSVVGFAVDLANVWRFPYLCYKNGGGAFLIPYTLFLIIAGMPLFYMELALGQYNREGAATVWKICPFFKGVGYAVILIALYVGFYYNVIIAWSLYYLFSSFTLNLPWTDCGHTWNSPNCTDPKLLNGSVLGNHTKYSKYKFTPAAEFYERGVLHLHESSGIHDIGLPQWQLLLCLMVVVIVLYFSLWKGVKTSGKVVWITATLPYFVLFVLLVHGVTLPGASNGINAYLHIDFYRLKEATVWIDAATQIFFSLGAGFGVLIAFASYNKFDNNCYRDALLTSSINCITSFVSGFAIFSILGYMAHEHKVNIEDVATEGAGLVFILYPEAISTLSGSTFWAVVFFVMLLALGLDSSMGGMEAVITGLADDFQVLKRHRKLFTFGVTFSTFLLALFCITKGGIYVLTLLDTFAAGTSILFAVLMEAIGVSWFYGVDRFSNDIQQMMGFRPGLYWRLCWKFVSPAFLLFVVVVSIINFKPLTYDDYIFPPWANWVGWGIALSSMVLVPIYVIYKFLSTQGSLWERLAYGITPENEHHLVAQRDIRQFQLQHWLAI

Consider `CNC(=O)c1cccc(-c2ccc3c(N4CCOC[C@@H]4C)nc(N4CCOC[C@@H]4C)nc3n2)c1` [AZD2014], for which the results for the GI50 in the data set with SK-N-BE(2)C cells and with Kelly cells were 307 nM and 476 nM, respectively. In addition, the “mTORC1/2 inhibition in vivo (p-S6^S240/244, p-4EBP1^T37/46 IHC)” value in the data set with mTORC1/2 [1] is listed as “failed to inhibit”. The “increase of ^18F-mFBG uptake” value at NET-1 [2] (200 nM AZD2014, 72 h) was 39 ± 9%; at NET-1 [2] (500 nM AZD2014, 72 h), 62 ± 5%; in the data set on NET-1 [4] (200 nM AZD2014, 72 h) it was 128 ± 23%; in the data set on NET-1 [4] (500 nM AZD2014, 72 h) it was 292 ± 27%. Further, the “^123I-mIBG and ^18F-mFBG uptake” value on NET-1 [2] (AZD2014 0–500 nM, 24 h) was “concentration-dependent increase”; with NET-1 [4] (AZD2014 0–500 nM, 24 h) it was “concentration-dependent increase”. Moreover, the “total NET-1 protein expression” value in the data set on NET-1 [3] was “prominent and persistent increase”. The “NET-1 expression in tumour lysates, control vs treated” value in the data set with NET-1 [5] (Kelly, 25 mg/kg/day 3 days, p = 0.84, n = 2) is “no difference”. In addition, in the data set on NET-1 [5] (SK-N-BE(2)C, 20 mg/kg/day 3 days, not significant (p = 0.07, n = 4)), the “NET-1 expression in tumour lysates” value is “increase”. Besides, in the data set on Kelly xenografts (oral gavage, 3 days post-treatment initiation), the “body weight lost compared to the vehicle control” value is on record as ~ 10%. The tumour growth entry in the data set on Kelly xenografts (Kelly xenografts, n = 3, p < 0.0001) was “impeded”. In addition, the MYCN protein expression result in the data set with mTORC1/2 [6] (setting [9]) is “not robustly reduced”. Further, the “phosphorylation of S6 and 4EBP1” value with mTORC1/2 [6] (setting [9]) is “concentration dependent decrease”. Moreover, the “p-Akt^S473 inhibition” value with mTORC1/2 [6] (both cell lines, after 72 h incubation) is given as “not sustained”. The “p-Akt^S473” value in the data set with mTORC1/2 [6] (both cell lines, early time points (3–12 h)) was “concentration-dependent downregulation”.
In the case of `NC(N)=NCc1cccc(I)c1` [^123I-mIBG, meta-iodobenzylguanidine, reference compound], the “cell-associated radioactivity, SK-N-BE(2)C” value on NET-1 [7] is “greatest uptake”. Moreover, the “cell-associated radioactivity, Kelly” value at NET-1 [7] (SK-N-BE(2)C) is on record as “least uptake”. In addition, the “Tumour-to-background ratios compared with ^18F-mFBG” value in data set [8] is given as “greater”.
`N=C(N)NCc1cccc([131I])c1` [^131I-mIBG, meta-iodobenzylguanidine]: the clinical response with NB tumours is reported as 0 to 57%.

The values above are taken from article PMC7708446, “^18F-meta-fluorobenzylguanidine (^18F-mFBG) to monitor changes in norepinephrine transporter expression in response to therapeutic intervention in neuroblastoma models” (Scientific Reports, 2020).
